One compound from US5684036A, “Cytotoxic macrolides and methods of use” (Harbor Branch Oceanographic Institution, Inc., priority 1995, dated 1997) can be followed below.

Converted amounts (≈) assume the structure as drawn. Read-outs that look alike come from different tables or passages of the source. Bounds are passed on as bounds.

What all share (format): cell-based
For assay [1], the system named is A549 human lung carcinoma cells. In words: antiproliferative effect against A549 human lung carcinoma cells (MTT, 72 hours). The method, then:
(§1) Lasonolide A was tested for toxicity against P388 murine leukemia cells and A549 human lung carcinoma cells, and for their ability to perturb signal transduction pathways associated with activation of protein kinase C (PKC) and EL-4 cell adherence.
A. Maintenance of cell line. The P388 murine leukemia cells were obtained from Dr. J. Mayo, National Cancer Institute, Bethesda, Md. The A549 cells and EL-4.IL-2 cells (TIB) were obtained from the American Type Culture Collection, Rockville, Md. The P388 cells were maintained in Roswell Park Memorial Institute medium 1640 (RPMI-1640) supplemented with 10% horse serum and cultured in plastic tissue culture flasks and kept in an incubator at 37° C. in humidified air containing 5% CO2. The A549 cells were similarly maintained in RPMI-1640 but supplemented with 10% fetal bovine serum. […]
(§2) To quantitate the effects of Lasonolide A or its analogs on cell proliferation, 75 μl warm growth medium containing 5 mg/ml MTT was added to each well. […] To spectrophotometrically quantitate formation of reduced formazan, plates were centrifuged (900 g, 5 minutes), culture fluids were removed by aspiration, and 200 μl of acidified isopropanol (2 ml concentrated HCl/L isopropanol) added per well. The absorbance of the resulting solutions was measured at 570 nm with a plate reader (MR700 Microplate Reader, Dynatech Laboratories, Chantilly, Va.). […]

Assay [2] concerns EL-4 cell adherence (protein kinase C). Description: EL-4 adherence assay (PKC-associated, with or without PMA). The arrangement: key to EL-4 Adherence: Inh: inhibition. As to conditions: for IC50: Mus musculus, EL4. The procedure:
as §1
(§3) A. Maintenance of cell line. The P388 murine leukemia cells were obtained from Dr. J. Mayo, National Cancer Institute, Bethesda, Md. The A549 cells and EL-4.IL-2 cells (TIB) were obtained from the American Type Culture Collection, Rockville, Md. The P388 cells were maintained in Roswell Park Memorial Institute medium 1640 (RPMI-1640) supplemented with 10% horse serum and cultured in plastic tissue culture flasks and kept in an incubator at 37° C. in humidified air containing 5% CO2. The A549 cells were similarly maintained in RPMI-1640 but supplemented with 10% fetal bovine serum. Antibiotic-free stock cultures of P388 and A549 cells were subcultured to 10^5 cells/mi by dilutions in fresh growth medium at 2 to 5 day intervals. The EL-4 cells were similarly maintained but supplemented with 10% v/v heat-inactivated fetal calf serum, 100 U/ml penicillin, 100 μg/ml streptomycin, 6/ μg/ml L-glutamine, and 5×10^-3 M 2-mercaptoethanol (TCM) (Grand Island Biologicals Co., Grand Island, N.Y.).
Cells were passaged every 3-4 days. Viability was determined by Trypan blue exclusion and always exceeded 80%. For the adherence assay, cells were utilized within 15 passages of frozen stock cultures. Phorbol-12-myristate-13-acetate (PMA), and 4α-phorbol-12-myristate-13-acetate (4α-PMA) were obtained from LC Services Corporation (Woburn, Mass.). Stock solutions of PMA and 4α-PMA were prepared in DMSO and were stored at -70° C. prior to use.
To assess the effect of the subject compound on EL-4 cells, EL-4 cells (2.5×10^5 /well) were cultured in 96-well, flat-bottomed microtiter test plates at 37° C. with the sponge metabolites in triplicate concentrations in the presence (Plate #1) or absence (Plate #2) of PMA (16 nM final concentration). […] Controls consisted of cells incubated alone (negative control) and cells incubated with PMA (positive control). An additional control plate (Plate #3), consisting of EL-4.1IL-2 cells and identical dilutions of compounds in the absence of PMA served as a cytotoxicity plate and was not processed for adherence as described below, but used to monitor the potential cytotoxic effect of compounds for EL-4.1IL2 cells. Incubation time was 1 hour at 37° C. Following the incubation period, Plates #1 and #2 were processed as follows: the contents of each well were removed by flicking the plates into a catch tray and placing the plates inverted onto a paper towel in order to drain and blot the remaining draining wells. To each well, a volume of 100 μl of TCM was added at room temperature and the plates placed on a rotating platform shaker (Mini-Orbital Shaker, BELLCO Biotechnology, Vineland, N.J.) at setting 5 for 4 minutes. The plates were then rotated 180° and subjected to an additional 4 minutes of shaking. The plates were removed and their contents again removed as described, blotted, TCM added to each well, and the plates placed on the rotating shaker. This process was repeated for two additional wash cycles.
Following the removal of well contents, a volume of 200 μl of TCM and 75 of MTT solution (2 mg/ml in TCM) was added to each well of all plates. Plates were incubated at 37° C. for an additional 4 hours. Following incubation, the contents of Plates #1 and #2 were again removed by flicking the plate into the sink and the plates blotted onto paper towels. Plate #3 was centrifuged and likewise blotted. A volume of 200 μl of iPrOH was then added to each well of all plates in order to dissolve the resulting formazan crystals. The plates were read at 570 nm using a plate reader (Microplate Autoreader, Model EL-311, BIO-TEK Instruments, Inc., Winooski, Vt.). The absorbances for each set of triplicate wells were averaged and the standard error determined. […]

The test system of a further assay is tumor cell. Description: inhibition of tumor cell growth (general statement). As to conditions: in words.
Assay [3] deals with P388 murine leukemia cells. In words: antiproliferative effect against P388 murine leukemia cells (MTT, 48 hour exposure). The conditions noted are these: for IC50: Mus musculus, P388. The method, then:
as §1, §3
B. Procedure. […]
as §2

What is called IC50 is the concentration at which inhibition is half-maximal. For the compound `C=C(CCC(C)C)COC(=O)C(O)C/C=C/CC1OC2/C=C\C/C=C/C(C)=C\C3OC(C/C=C/C=C/C(=O)OC(C2)C1(C)CO)CC(O)C3C` (stereo not shown) [Lasonolide A], the IC50 in assay [1] (Table 4, MTT, 72 hours, read-out: A549 IC50) was 0.04 µg/mL (≈ 0.0574 µM); in assay [1] (read-out: IC50 against cultured human lung carcinoma cells (A549)), 0.04 µg/mL (≈ 0.0574 µM); in assay [2] (Table 4, Assay # 38, read-out: EL-4 Adherence IC50) it was 0.019 µg/mL (≈ 0.0273 µM); in assay [2] (unit inferred, read-out: IC50 by EL-4 Adherence), 0.019 µg/mL (≈ 0.0273 µM); in assay [3] (Table 4, MTT, 48 hours, read-out: P388 IC50), 2 ng/mL (≈ 0.00287 µM); in assay [3] (read-out: IC50 against mouse leukemia cells), < 10 ng/mL. Besides, the “EL-4 Adherence” value in assay [2] (Table 4, 3.125 μg/ml) was “Inh”; in assay [2] (Table 4, 6.25 μg/ml), “Inh”; in assay [2] (Table 4, 12.5 μg/ml) it was “Inh”; in assay [2] (Table 4, 25 μg/ml), “Inh”. The “Inhibition using the EL-4 Adherence assay” value in assay [2] (in words) is “strong”. The “inhibition of tumor cell growth” value with tumor cell is given as “inhibit tumor cell growth”. Further, in assay [3] (in words), the “inhibitory properties against mouse leukemia cells” value is reported as “strong inhibitory properties”.
